In the supplement of paper PMC10307832:

How the values were obtained:
Assay in all cases: relative viability (nuclei count vs DMSO), 5 days (fraction); higher = more cells survive
Etoposide + Trametinib = compound: COc1cc([C@@H]2c3cc4c(cc3[C@@H](O[C@@H]3O[C@@H]5CO[C@@H](C)O[C@H]5[C@H](O)[C@H]3O)[C@H]3COC(=O)[C@H]23)OCO4)cc(OC)c1O [Etoposide] + CC(=O)Nc1cccc(-n2c(=O)n(C3CC3)c(=O)c3c(Nc4ccc(I)cc4F)n(C)c(=O)c(C)c32)c1 [Trametinib] (partner 0.02 µM)
Method in brief: (§1)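 Lung cancer cell lines, seeded in 1536-well plates, were treated the following day by pin tool with a single drug or with five library-drug doses (not always all listed) in √10 steps on top of a fixed anchor-drug dose. Cells were fixed and nuclei stained in one step after 5 days, and nuclei were counted. Relative viability is the nuclei count for treated wells divided by that for vehicle wells, reported as medians of duplicate plates.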

Etoposide + Pictilisib = compound: COc1cc([C@@H]2c3cc4c(cc3[C@@H](O[C@@H]3O[C@@H]5CO[C@@H](C)O[C@H]5[C@H](O)[C@H]3O)[C@H]3COC(=O)[C@H]23)OCO4)cc(OC)c1O [Etoposide] + CS(=O)(=O)N1CCN(Cc2cc3nc(-c4cccc5[nH]ncc45)nc(N4CCOCC4)c3s2)CC1 [Pictilisib] (partner 1 µM)
Method in brief: as §1

Bleomycin + Dasatinib = compound: CC1=C(N=C(N=C1N)[C@H](CC(=O)N)NC[C@@H](C(=O)N)N)C(=O)N[C@@H]([C@H](C2=CN=CN2)OC3C(C(C(C(O3)CO)O)O)OC4C(C(C(C(O4)CO)O)OC(=O)N)O)C(=O)N[C@H](C)[C@H]([C@H](C)C(=O)N[C@@H]([C@@H](C)O)C(=O)NCCC5=NC(=CS5)C6=NC(=CS6)C(=O)NCCC[S+](C)C)O [Bleomycin] + Cc1nc(Nc2ncc(C(=O)Nc3c(C)cccc3Cl)s2)cc(N2CCN(CCO)CC2)n1 [Dasatinib] (partner 0.075 µM); conditions: main component drawn
Method in brief: as §1

Etoposide + Foretinib = compound: COc1cc([C@@H]2c3cc4c(cc3[C@@H](O[C@@H]3O[C@@H]5CO[C@@H](C)O[C@H]5[C@H](O)[C@H]3O)[C@H]3COC(=O)[C@H]23)OCO4)cc(OC)c1O [Etoposide] + COc1cc2c(Oc3ccc(NC(=O)C4(C(=O)Nc5ccc(F)cc5)CC4)cc3F)ccnc2cc1OCCCN1CCOCC1 [Foretinib] (partner 0.25 µM)
Method in brief: as §1

| Cell Line | relative viability (Etoposide + Trametinib; first compound 0.01 µM) | relative viability (Etoposide + Trametinib; first compound 0.03162 µM) | relative viability (Etoposide + Trametinib; first compound 0.1 µM) | relative viability (Etoposide + Trametinib; first compound 0.3162 µM) | relative viability (Etoposide + Trametinib; first compound 1 µM) | relative viability (Etoposide + Pictilisib; first compound 0.01 µM) | relative viability (Etoposide + Pictilisib; first compound 0.03162 µM) | relative viability (Etoposide + Pictilisib; first compound 0.1 µM) | relative viability (Etoposide + Pictilisib; first compound 0.3162 µM) | relative viability (Etoposide + Pictilisib; first compound 1 µM) | relative viability (Bleomycin + Dasatinib; first compound 0.01 µM) | relative viability (Bleomycin + Dasatinib; first compound 0.03162 µM) | relative viability (Bleomycin + Dasatinib; first compound 0.1 µM) | relative viability (Bleomycin + Dasatinib; first compound 0.3162 µM) | relative viability (Bleomycin + Dasatinib; first compound 1 µM) | relative viability (Etoposide + Foretinib; first compound 0.01 µM) | relative viability (Etoposide + Foretinib; first compound 0.03162 µM) | relative viability (Etoposide + Foretinib; first compound 0.1 µM) | relative viability (Etoposide + Foretinib; first compound 0.3162 µM) | relative viability (Etoposide + Foretinib; first compound 1 µM) |
| --- | --- | --- | --- | --- | --- | --- | --- | --- | --- | --- | --- | --- | --- | --- | --- | --- | --- | --- | --- | --- |
| HCC-44 | 1.01 | 1.21 | 1.09 | 0.97 | 0.739 | 0.529 | 0.601 | 0.531 | 0.589 | 0.275 |  |  |  |  |  |  |  |  |  |  |
| HCC-827 | 0.497 | 0.525 | 0.315 | 0.23 | 0.187 | 1.03 | 0.878 | 0.564 | 0.479 | 0.366 | 0.228 | 0.24 | 0.338 | 0.245 | 0.225 | 0.996 | 1.01 | 0.915 | 0.284 | 0.177 |
| NCI-H1623 |  |  |  |  |  |  |  |  |  |  | 0.561 | 0.557 | 0.521 | 0.347 | 0.273 | 0.984 | 0.937 | 0.628 | 0.658 | 0.298 |
| NCI-H2405 | 0.64 | 0.728 | 0.505 | 0.544 | 0.4 | 0.455 | 0.508 | 0.268 | 0.399 | 0.315 | 0.206 | 0.212 | 0.208 | 0.181 | 0.166 | 1.01 | 1.08 | 1.05 | 0.899 | 0.43 |
| PC-3 [JPC-3] | 0.693 | 0.756 | 0.633 | 0.749 | 0.671 | 0.689 | 0.819 | 0.576 | 0.785 | 0.497 | 0.881 | 1.09 | 0.986 | 0.72 | 0.618 | 0.947 | 1.06 | 1.06 | 0.906 | 0.897 |
| NCI-H1651 | 0.774 | 0.783 | 0.558 | 0.362 | 0.165 | 0.49 | 0.681 | 0.436 | 0.178 | 0.0908 | 0.344 | 0.361 | 0.384 | 0.187 | 0.144 | 0.781 | 0.659 | 0.784 | 0.351 | 0.251 |
| HARA | 0.628 | 0.638 | 1.01 | 0.592 | 0.353 | 0.3 | 0.545 | 0.255 | 0.449 | 0.086 | 0.297 | 0.322 | 0.251 | 0.186 | 0.104 | 0.703 | 0.9 | 0.291 | 0.534 | 0.187 |
| NCI-H1650 | 0.459 | 0.541 | 0.458 | 0.257 | 0.143 | 0.506 | 0.572 | 0.378 | 0.196 | 0.139 | 0.263 | 0.281 | 0.145 | 0.124 | 0.128 | 0.981 | 1.09 | 0.9 | 0.431 | 0.281 |
| NCI-H1395 | 0.962 | 1.15 | 0.839 | 1.01 | 0.808 | 0.618 | 0.665 | 0.591 | 0.551 | 0.446 | 0.377 | 0.413 | 0.379 | 0.412 | 0.381 | 1 | 0.978 | 0.868 | 0.885 | 0.606 |
| NCI-H2087 | 0.206 | 0.213 | 0.173 | 0.2 | 0.147 |  | 1.09 | 0.551 | 0.543 | 0.235 |  | 0.852 | 0.668 | 0.131 | 0.13 | 1.04 | 1.11 | 0.859 | 0.46 | 0.221 |
| LU99A | 0.493 | 0.672 | 0.391 | 0.312 | 0.206 | 0.362 | 0.337 | 0.237 | 0.212 | 0.159 | 0.366 | 0.505 | 0.367 | 0.205 | 0.125 | 0.911 | 0.966 | 0.43 | 0.466 | 0.287 |
| NCI-H1355 | 0.396 | 0.478 | 0.27 | 0.384 | 0.256 | 0.492 | 0.552 | 0.276 | 0.284 | 0.144 | 0.668 | 0.661 | 0.84 | 0.252 | 0.192 | 0.812 | 0.998 | 0.828 | 0.507 | 0.285 |
| HCC-78 | 0.585 | 0.759 | 0.648 | 0.403 | 0.299 | 0.218 | 0.202 | 0.144 | 0.188 | 0.15 | 0.326 | 0.548 | 0.366 | 0.287 | 0.285 | 0.476 | 0.532 | 0.438 | 0.404 | 0.252 |
| NCI-H1563 |  |  |  |  |  | 0.661 | 0.653 | 0.61 | 0.501 | 0.555 | 0.439 | 0.452 | 0.438 | 0.401 | 0.47 | 0.758 | 0.93 | 0.785 | 0.609 | 0.604 |
| HCC-15 | 0.35 | 0.469 | 0.34 | 0.287 | 0.192 | 0.758 | 0.713 | 0.428 | 0.292 | 0.141 | 0.613 | 0.559 | 0.515 | 0.0886 | 0.177 | 1.07 | 1.02 | 1.02 | 0.314 | 0.157 |
| EKVX | 0.287 | 0.382 | 0.303 | 0.295 | 0.169 | 0.447 | 0.429 | 0.208 | 0.309 | 0.241 | 0.56 | 0.435 | 0.502 | 0.276 | 0.26 | 1.09 | 0.711 | 0.448 | 0.237 | 0.303 |
